According to PubChem BioAssay (NCI):
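A five-concentration, 48-hour dose response in 96-well plates underlies each endpoint, interpolated linearly between surrounding concentrations. The concentration for 50% growth inhibition is given as GI50. At the TGI there is no net growth.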

Experiments:
Experiment in all cases: NCI-60 cell line screen, 48 h
786-0 renal = system: 786-0 renal
OVCAR-8 ovarian = system: OVCAR-8 ovarian
MALME-3M melanoma = system: MALME-3M melanoma
CCRF-CEM leukemia = system: CCRF-CEM leukemia
RPMI-8226 leukemia = system: RPMI-8226 leukemia
A549 NSCLC = system: A549 NSCLC
U251 CNS = system: U251 CNS
DU-145 prostate = system: DU-145 prostate
MCF7 breast = system: MCF7 breast
MDA-MB-231 breast = system: MDA-MB-231 breast

Compound | TGI (786-0 renal) | TGI (OVCAR-8 ovarian) | TGI (MALME-3M melanoma) | TGI (CCRF-CEM leukemia) | TGI (RPMI-8226 leukemia) | TGI (A549 NSCLC) | TGI (U251 CNS) | GI50 (786-0 renal) | GI50 (DU-145 prostate) | TGI (DU-145 prostate) | GI50 (MCF7 breast) | TGI (MCF7 breast) | GI50 (OVCAR-8 ovarian) | GI50 (MDA-MB-231 breast) | TGI (MDA-MB-231 breast) | GI50 (A549 NSCLC) | GI50 (U251 CNS) | GI50 (MALME-3M melanoma) | GI50 (CCRF-CEM leukemia) | GI50 (RPMI-8226 leukemia)
COC(=O)C(=O)OC1(C(C)=O)CC2(c3ccccc3)OC1(c1ccccc1)c1ccccc12 (stereo not drawn) | 26.9 µM | 30.3 µM | 35.2 µM | > 100 µM | > 100 µM | 31.3 µM | 30.5 µM | – | – | – | – | – | – | – | – | – | – | – | – | –
Oc1ccccc1C=NCc1ccco1 | > 100 µM | > 100 µM | > 100 µM | > 100 µM | > 100 µM | > 100 µM | > 100 µM | – | – | – | – | – | – | – | – | – | – | – | – | –
CCC/C(=N/NC(=O)C(N)=O)C(CC)C(=O)CCC(=O)N(Cc1ccccc1)Cc1ccccc1 (stereo not drawn) | > 100 µM | > 100 µM | > 100 µM | > 100 µM | > 100 µM | > 100 µM | > 100 µM | – | – | – | – | – | – | – | – | – | – | – | – | –
Cc1ccc(/C=C2/SC(Nc3nc(-c4csc(NC5=NC(=O)/C(=C\c6ccc(C)cc6)S5)n4)cs3)=NC2=O)cc1 | 25.6 µM | 26.6 µM | – | – | – | 47.6 µM | > 50 µM | 7.68 µM | 9.28 µM | > 50 µM | 2.3 µM | > 50 µM | 6.05 µM | 9.76 µM | 40.6 µM | 7 µM | 3.43 µM | – | – | –
CC1(CO)OC(n2cc(C(=O)NC(=O)OCc3ccccc3)c(=O)[nH]c2=O)CC1O (stereo not drawn) | > 100 µM | > 100 µM | > 100 µM | > 100 µM | > 100 µM | > 100 µM | > 100 µM | – | – | – | – | – | – | – | – | – | – | – | – | –
CC(C)c1ccc(C2C3=C(N=C4SCC(=O)N42)C(=O)c2ccccc23)cc1 (stereo not drawn) | > 100 µM | > 100 µM | > 100 µM | > 100 µM | > 100 µM | > 100 µM | > 100 µM | – | – | – | – | – | – | – | – | – | – | – | – | –
CCOc1ccc(-c2nonc2NC(=O)c2cccc(C)c2)cc1OCC | > 100 µM | > 100 µM | > 100 µM | > 100 µM | > 100 µM | > 100 µM | > 100 µM | 49.7 µM | > 100 µM | > 100 µM | – | – | > 100 µM | 19.5 µM | 62.5 µM | > 100 µM | 30.5 µM | > 100 µM | > 100 µM | > 100 µM
O=C(CNc1ccc2c(c1)C(=O)c1ccccc1C2=O)Nc1ccc2c(c1)C(=O)c1ccccc1C2=O | 1.69 µM | 2.03 µM | 2.36 µM | – | 3.46 µM | 3.58 µM | 1.57 µM | 0.451 µM | 1.53 µM | 2.87 µM | 0.809 µM | 2.6 µM | 0.423 µM | 1.31 µM | 4.71 µM | 1.68 µM | 0.449 µM | 0.739 µM | – | 0.957 µM
COc1cc(/C=C(\C#N)C(=O)c2ccccc2)ccc1O | > 100 µM | > 100 µM | > 100 µM | > 100 µM | > 100 µM | > 100 µM | > 100 µM | – | – | – | – | – | – | – | – | – | – | – | – | –
Cc1cc(S(N)(=O)=O)c(S/C(CC(C)C)=N\Nc2ccc([N+](=O)[O-])cc2)cc1Cl | 19.8 µM | 52.8 µM | 25 µM | – | 7.28 µM | 27.2 µM | 25.5 µM | 7.15 µM | 14.4 µM | 28 µM | 2.36 µM | 7.27 µM | 16.9 µM | 2.77 µM | 9.52 µM | 9.46 µM | 10.6 µM | 12.5 µM | – | 2.58 µM
Fc1ccc2c(c1)c(-c1nc(-c3c[nH]c4ncccc34)cs1)cn2CCCN1CCCCC1 | 3.1 µM | – | – | – | – | 3.62 µM | 3.33 µM | 1.65 µM | 1.74 µM | 3.26 µM | – | – | – | 1.69 µM | 3.18 µM | 1.91 µM | 1.82 µM | – | – | –
COc1cc2cc(Oc3ccc(NC(=O)Nc4cccc(C(F)(F)F)c4)cc3)c(C)nc2cc1OC | 9.24 µM | 6.28 µM | 4.9 µM | – | 2.96 µM | 6.49 µM | 5.61 µM | 1.74 µM | 2.78 µM | 15.8 µM | 1.34 µM | 5.43 µM | 1.71 µM | 1.13 µM | 4.15 µM | 1.47 µM | 1.56 µM | 1.71 µM | – | 1.05 µM
O=[N+]([O-])c1nccn1CC(O)CN1CC1 (stereo not drawn) | > 100 µM | > 100 µM | > 100 µM | > 100 µM | > 100 µM | > 100 µM | > 100 µM | – | – | – | – | – | – | – | – | – | – | – | – | –
C[S+](C)CCOC(=O)C(=[N+]=[N-])c1ccc([N+](=O)[O-])cc1 | > 100 µM | > 100 µM | > 100 µM | > 100 µM | > 100 µM | > 100 µM | > 100 µM | – | – | – | – | – | – | – | – | – | – | – | – | –
COC(=O)/C([Se]c1c(C)cc(C)cc1C)=C(\[Se]c1c(C)cc(C)cc1C)C(=O)OC | > 100 µM | > 100 µM | > 100 µM | > 100 µM | > 100 µM | > 100 µM | > 100 µM | – | – | – | – | – | – | – | – | – | – | – | – | –
O=c1nc2n(-c3ccc(Cl)cc3)c3ccc([N+](=O)[O-])cc3cc-2c(=O)[nH]1 | 37.1 µM | > 100 µM | – | > 100 µM | 47.7 µM | > 100 µM | 88.7 µM | 17.9 µM | 29.1 µM | 79.5 µM | – | – | 33.2 µM | 17.3 µM | 44.5 µM | 30.4 µM | 8.15 µM | – | 9.37 µM | 12.3 µM
N#CC(C(=O)CCC(=O)C(C#N)c1ccccc1)c1ccccc1 (stereo not drawn) | > 100 µM | > 100 µM | > 100 µM | > 100 µM | > 100 µM | > 100 µM | > 100 µM | – | – | – | – | – | – | – | – | – | – | – | – | –
Cc1ccc(-n2c3c(c4c(CN(C)C)c(O)ccc42)CCc2ccccc2C3=O)cc1 | 33.3 µM | 41.8 µM | – | – | 30.5 µM | 33.8 µM | 30.5 µM | 16.9 µM | 37.3 µM | > 100 µM | 19 µM | 38.8 µM | 16.9 µM | 14.9 µM | 31 µM | 16.7 µM | 15.6 µM | – | – | 11 µM
